Experimental data taken from patent publication US10329289B2, “6,7-dihydro-5H-pyrrolo[3,4-B]pyridin-5-one allosteric modulators of the M4 muscarinic acetylcholine receptor” (Merck Sharp & Dohme Corp., priority 2015, dated 2019).

Target: T1, human M4 muscarinic acetylcholine receptor (Homo sapiens, UniProt P08173)
T1 construct: expressed in transfected cells; host or cells: CHO-K1
T1 sequence (P08173 1-479): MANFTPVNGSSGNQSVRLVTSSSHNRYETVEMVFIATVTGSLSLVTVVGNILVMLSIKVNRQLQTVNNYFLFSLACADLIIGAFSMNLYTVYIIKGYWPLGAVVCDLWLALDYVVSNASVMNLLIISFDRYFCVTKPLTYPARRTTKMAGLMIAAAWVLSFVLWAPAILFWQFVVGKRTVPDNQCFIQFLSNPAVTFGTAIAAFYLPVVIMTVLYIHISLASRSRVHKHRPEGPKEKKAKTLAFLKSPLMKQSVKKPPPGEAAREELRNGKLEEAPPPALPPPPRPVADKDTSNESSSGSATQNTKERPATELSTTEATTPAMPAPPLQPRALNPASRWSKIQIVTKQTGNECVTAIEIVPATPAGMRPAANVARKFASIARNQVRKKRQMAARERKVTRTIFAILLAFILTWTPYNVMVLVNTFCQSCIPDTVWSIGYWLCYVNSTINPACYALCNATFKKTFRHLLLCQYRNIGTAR
Assay: human FLIPR-based M4 PAM assay (Ca2+ mobilization, CHO-K1 cells with human M4 receptor and Gαqi5)
Format: cell-based
Conditions: acetylcholine at 20% of maximum response, read-out: M4 PAM IP
In short: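 CHO-K1 cells stably expressing human M4 and chimeric Gαqi5 were dye-loaded ~1 h at 37 °C and read for Ca2+ fluorescence. Compound followed by acetylcholine at an EC20 (sometimes an EC70 third addition); inflection point from a 4-parameter logistic fit.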

Row | Compound | EC50 [nM]
1 | CCc1cc2c(nc1N1CCC(Oc3cccnc3)CC1)CNC2=O [Example 201, 3-ethyl-2-(4-(pyridin-3-yloxy)piperidin-1-yl)-6,7-dihydro-5H-pyrrolo[3,4-b]pyridin-5-one] | 230
2 | Cc1cc2c(nc1N1CCC(Oc3ccc4nn(C)cc4c3)CC1)CNC2=O [Example 202A, 3-methyl-2-(4-((2-methyl-2H-indazol-5-yl)oxy)piperidin-1-yl)-6,7-dihydro-5H-pyrrolo[3,4-b]pyridin-5-one] | 96
3 | Cc1cc2c(nc1N1CCC(Oc3ccc4c(c3)C(C)(C)CCO4)CC1)CNC2=O [Example 125, 2-(4-((4,4-dimethylchroman-6-yl)oxy)piperidin-1-yl)-3-methyl-6,7-dihydro-5H-pyrrolo[3,4-b]pyridin-5-one] | 612
4 | Cc1cc2c(nc1N1CCC(Oc3cncc(C#N)c3)CC1)CNC2=O [Example 50, 5-((1-(3-methyl-5-oxo-6,7-dihydro-5H-pyrrolo[3,4-b]pyridin-2-yl)piperidin-4-yl)oxy)nicotinonitrile] | 657
5 | Cc1cc2c(nc1N1CCC(Oc3cccc(S(C)(=O)=O)c3)CC1)CNC2=O [Example 47A, 3-methyl-2-(4-(3-(methylsulfonyl)phenoxy)piperidin-1-yl)-6,7-dihydro-5H-pyrrolo[3,4-b]pyridin-5-one] | 287
6 | Cc1cc2c(nc1N1CCC(OCC(C)C(F)(F)F)CC1)CNC2=O (stereo not drawn) [Example 188, 3-methyl-2-(4-(3,3,3-trifluoro-2-methylpropoxy)piperidin-1-yl)-6,7-dihydro-5H-pyrrolo[3,4-b]pyridin-5-one] | 1220
7 | Cc1cc2c(nc1N1CCC(Oc3ccc4c(c3)CC[C@H]4CCO)CC1)CNC2=O [Example 157B, (S)-2-(4-((1-(2-hydroxyethyl)-2,3-dihydro-1H-inden-5-yl)oxy)piperidin-1-yl)-3-methyl-6,7-dihydro-5H-pyrrolo[3,4-b]pyridin-5-one] | 144
8 | Cc1cc2c(nc1N1CCC(Oc3ccccc3Cl)CC1)CNC2=O [Example 73, 2-(4-(2-chlorophenoxy)piperidin-1-yl)-3-methyl-6,7-dihydro-5H-pyrrolo[3,4-b]pyridin-5-one] | 2250
9 | COc1ccc(OC2CCN(c3nc4c(cc3CF)C(=O)NC4)CC2)cn1 [Example 304, 3-(Fluoromethyl)-2-(4-((6-methoxypyridin-3-yl)oxy)piperidin-1-yl)-6,7-dihydro-5H-pyrrolo[3,4-b]pyridin-5-one] | 1120
10 | COc1ccc(OC2CCN(c3nc4c(cc3C)C(=O)N(Cc3ccncc3)C4=O)CC2)cn1 [Example 296, 2-(4-((6-Methoxypyridin-3-yl)oxy)piperidin-1-yl)-3-methyl-6-(pyridin-4-ylmethyl)-5H-pyrrolo[3,4-b]pyridine-5,7(6H)-dione] | 83
11 | Cc1cc2c(nc1N1CCC(Oc3cnc4[nH]ccc4c3)CC1)CNC2=O [Example 70, 2-(4-((1H-pyrrolo[2,3-b]pyridin-5-yl)oxy)piperidin-1-yl)-3-methyl-6,7-dihydro-5H-pyrrolo[3,4-b]pyridin-5-one] | 79
12 | CCc1cc2c(nc1N1CCC(Oc3cccc(C#N)c3)CC1)CNC2=O [Example 93A, 3-((1-(3-ethyl-5-oxo-6,7-dihydro-5H-pyrrolo[3,4-b]pyridin-2-yl)piperidin-4-yl)oxy)benzonitrile] | 148
13 | COc1ccc(O[C@H]2CCN(c3nc4c(cc3C)C(=O)NC4)C[C@H]2C)cn1 [Example 29B, 2-((3R,4S)-4-((6-methoxypyridin-3-yl)oxy)-3-methylpiperidin-1-yl)-3-methyl-6,7-dihydro-5H-pyrrolo[3,4-b]pyridin-5-one] | 30000
14 | COC(=O)c1cncc(OC2CCN(c3nc4c(cc3C)C(=O)NC4)CC2)c1 [Example 111, methyl 5-((1-(3-methyl-5-oxo-6,7-dihydro-5H-pyrrolo[3,4-b]pyridin-2-yl)piperidin-4-yl)oxy)nicotinate] | 4360
15 | CCc1cc2c(nc1N1CC[C@H](OCC3(C)CC3)[C@@H](F)C1)CNC2=O [Example 6A, 3-ethyl-2-((3S,4S)-3-fluoro-4-((1-methylcyclopropyl)methoxy)piperidin-1-yl)-6,7-dihydro-5H-pyrrolo[3,4-b]pyridin-5-one] | 150
16 | Cc1cc2c(nc1N1CCC(Oc3ccc(F)cc3)CC1)[C@@H](CO)N(C)C2=O [Example 279, (S)-2-(4-(4-fluorophenoxy)piperidin-1-yl)-7-(hydroxymethyl)-3,6-dimethyl-6,7-dihydro-5H-pyrrolo[3,4-b]pyridin-5-one] | 30
17 | Cc1cc2c(nc1N1CCC(Oc3ccc4c(c3)C(=O)N(C3CC3)C4)CC1)CNC2=O [Example 10, 2-(4-((2-cyclopropyl-3-oxoisoindolin-5-yl)oxy)piperidin-1-yl)-3-methyl-6,7-dihydro-5H-pyrrolo[3,4-b]pyridin-5-one] | 179

Row | Compound | EC50 [nM]
18 | COc1ccc(OC2CCN(c3nc4c(cc3C)C(=O)N(C[C@H](O)C(F)(F)F)C4)CC2)cn1 [Example 319, (S)-2-(4-((6-methoxypyridin-3-yl)oxy)piperidin-1-yl)-3-methyl-6-(3,3,3-trifluoro-2-hydroxypropyl)-6,7-dihydro-5H-pyrrolo[3,4-b] pyridin-5-one] | 96
19 | Cc1cc2c(nc1N1CCC(Oc3ccc(OCCO)nc3)CC1)CNC2=O [Example 170, 2-(4-((6-(2-hydroxyethoxy)pyridin-3-yl)oxy)piperidin-1-yl)-3-methyl-6,7-dihydro-5H-pyrrolo[3,4-b]pyridin-5-one] | 40
20 | Cc1cc2c(nc1N1CCC(Oc3ccccc3)CC1)[C@@H](CO)N(C)C2=O [Example 276, (S)-7-(hydroxymethyl)-3,6-dimethyl-2-(4-phenoxypiperidin-1-yl)-6,7-dihydro-5H-pyrrolo[3,4-b]pyridin-5-one] | 145
21 | Cc1cc2c(nc1N1CCC(Oc3ccc4c(c3)CCOC4=O)CC1)CNC2=O [Example 121, 3-methyl-2-(4-((1-oxoisochroman-6-yl)oxy)piperidin-1-yl)-6,7-dihydro-5H-pyrrolo[3,4-b]pyridin-5-one] | 1920
22 | Cc1cc2c(nc1N1CC[C@@H](Oc3ccc4c(cnn4C)c3)[C@@H](F)C1)CN(C)C2=O [Example 31, 2-((3S,4R)-3-fluoro-4-((1-methyl-1H-indazol-5-yl)oxy)piperidin-1-yl)-3,6-dimethyl-6,7-dihydro-5H-pyrrolo[3,4-b]pyridin-5-one] | 42
23 | COc1ccc(OC2CCN(c3nc4c(cc3C)C(=O)N(C)C4)CC2)cn1 [Example 18, 2-(4-((6-methoxypyridin-3-yl)oxy)piperidin-1-yl)-3,6-dimethyl-6,7-dihydro-5H-pyrrolo[3,4-b]pyridin-5-one] | 36
24 | CCN1Cc2nc(N3CCC(Oc4ccc(OC)nc4)CC3)c(C)cc2C1=O [Example 232, 6-Ethyl-2-(4-((6-methoxypyridin-3-yl)oxy)piperidin-1-yl)-3-methyl-6,7-dihydro-5H-pyrrolo[3,4-b]pyridin-5-one] | 81
25 | Cc1cc2c(nc1N1CCC(Oc3cnc4c(c3)CCC4)CC1)CNC2=O [Example 59, 2-(4-((6,7-dihydro-5H-cyclopenta[b]pyridin-3-yl)oxy)piperidin-1-yl)-3-methyl-6,7-dihydro-5H-pyrrolo[3,4-b]pyridin-5-one] | 123
26 | Cc1cc2c(nc1N1CCC(OCc3cnn(C)c3)CC1)CNC2=O [Example 190A, 3-methyl-2-(4-((1-methyl-1H-pyrazol-4-yl)methoxy)piperidin-1-yl)-6,7-dihydro-5H-pyrrolo[3,4-b]pyridin-5-one] | 820
27 | Cc1cc2c(nc1N1CCC(Oc3ccc4c(c3)CC(O)C4)CC1)CNC2=O (stereo not drawn) [Example 324, 2-(4-((2-Hydroxy-2,3-dihydro-1H-inden-5-yl)oxy)piperidin-1-yl)-3-methyl-6,7-dihydro-5H-pyrrolo[3,4-b]pyridin-5-one] | 17
28 | Cc1cc2c(nc1N1CCC(Oc3ccc(OCCN4CCC4)nc3)CC1)CNC2=O [Example 173, 2-(4-((6-(2-(azetidin-1-yl)ethoxy)pyridin-3-yl)oxy)piperidin-1-yl)-3-methyl-6,7-dihydro-5H-pyrrolo[3,4-b]pyridin-5-one] | 313
29 | Cc1cc2c(nc1N1CCC(Oc3cccc(C#N)c3)CC1)[C@@H](CO)N(C)C2=O [Example 345, (S)-3-((1-(7-(hydroxymethyl)-3,6-dimethyl-5-oxo-6,7-dihydro-5H-pyrrolo[3,4-b]pyridin-2-yl)piperidin-4-yl)oxy)benzonitrile] | 23
30 | Cc1cc2c(nc1N1CCC(Oc3cccc(C#N)c3)CC1)C(C)(C)N(C)C2=O [Example 15, 3-((1-(3,6,7,7-tetramethyl-5-oxo-6,7-dihydro-5H-pyrrolo[3,4-b]pyridin-2-yl)piperidin-4-yl)oxy)benzonitrile] | 1990
31 | CCc1cc2c(nc1N1CCC(OCC3(C)CC3)CC1)[C@H](CO)N(C)C2=O [Example 342, (R)-3-ethyl-7-(hydroxymethyl)-6-methyl-2-(4-((1-methylcyclopropyl)methoxy)piperidin-1-yl)-6,7-dihydro-5H-pyrrolo[3,4-b]pyridin-5-one] | 3440
32 | CCc1cc2c(nc1N1CC[C@@H](OCC3(C)CC3)C(F)(F)C1)CNC2=O (single isomer, unassigned) [Example 374A] | 416
33 | COc1ccc(OC2CCN(c3nc4c(cc3C)C(=O)NC43CC3)CC2)cn1 [Example 300] | 286
